The source of these data is PubChem BioAssay (NCI).

Holding throughout (test): DTP human tumour cell line panel, 48 h
Test [1] relates to ACHN renal.
In test [2] the test system is CCRF-CEM leukemia.
Test [3] relates to HCT-15 colon.
Test [4] has as its system KM12 colon.
Test [5] relates to MDA-MB-231 breast.
Test [6] deals with NCI-H226 lung.
The test system of test [7] is OVCAR-3 ovarian.
In test [8] the test system is SW-620 colon.
The subject of test [9] is U251 CNS.
Test [10] deals with UACC-257 melanoma.

Several values for one entry are separate records, joined by “and”; a condition that tells them apart may be missing. Equal values may be shown once.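 Tested at 5 concentrations; 48 h exposure; 96-well plates; endpoints linearly interpolated, else capped at highest concentration. GI50: concentration for 50% inhibition of growth. TGI: concentration producing complete growth inhibition.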

A word on the GI50: it is the concentration at which growth is held to half of that of the control. For orientation: TGI means the concentration at which net growth stops. A higher TGI goes with lower sensitivity of the cells. Regarding `COc1ccc(Sc2[nH]c(C=O)c3ccccc23)cc1`, the GI50 in test [1] was 14.9 µM; in test [2] it was 5.66 µM; in [3], 11.6 µM; in test [4], 3.62 µM; in test [5] it was 13.4 µM; in test [6], 2.62 µM. For the same compound, the GI50 in test [7] was 11.9 µM; in test [8], 3.72 µM; in test [9], 12.3 µM; in test [10], 20.1 µM. The total growth inhibition concentration (TGI) in test [1] was 28.8 µM; in test [2], 22.3 µM; in [3], 24.4 µM; in [4] it was 13.7 µM; in test [5], 34.2 µM; in test [6], 16.8 µM. The TGI stood at 24.2 µM in test [7], 16.4 µM in test [8], 24.8 µM in [9] and 49.6 µM in test [10].
For `Cc1ccc(-c2cc(C(=O)Nc3ccc(S(=O)(=O)N4CCCCC4)cc3)[nH]n2)c(O)c1`, the GI50 in [1] is > 100 µM; in [2] it was 59.6 µM; in test [3], > 100 µM; in [4], > 100 µM; in test [5] it was 16.8 µM; in test [6], > 100 µM. Further, the GI50 in test [7], in [8], in [9] and in [10] was > 100 µM throughout. The total growth inhibition concentration (TGI) in test [1], in [2], in [3], in test [4], in test [5] and in test [6] was > 100 µM in each case. Further, the TGI in test [7], in test [8], in [9] and in test [10] was > 100 µM throughout.
As for `c1cc(OCCN2CCCC2)ccc1CNc1ccc2nc(CCC3CCCCC3)[nH]c2c1`, the GI50 was 2.29 µM in test [1]; 1.47 µM in test [2]; 1.55 µM in test [3]; 2.7 µM in test [4]; 1.61 µM in test [5]; 1.51 µM in test [6]. Besides, the GI50 was 1.67 µM in test [7], 1.85 µM in test [8], 1.41 µM in test [9] and 1.83 µM in test [10]. The concentration for total growth inhibition (TGI) in [1] came to 5.99 µM; in [2], 6.9 µM; in [3], 3.7 µM; in test [4] it was 8.46 µM; in [5] it was 3.19 µM; in test [6], 3.6 µM. For the same compound, the total growth inhibition concentration (TGI) was determined as 3.52 µM in test [7], 3.96 µM in test [8], 3.16 µM in test [9] and 4.04 µM in test [10].
As for `COc1cc2c3c(n(CCCN=[N+]=[N-])c(=O)c2cc1OC)-c1ccc(F)cc1C3=O`, the GI50 in [1] was 3.8 µM; in [2] it was 1.99 µM; in test [3], 79.3 µM; in test [4], 41.2 µM; in test [5], > 100 µM; in test [6] it was 43.2 µM. Also, the GI50 was 6.11 µM in test [7], 6.29 µM in test [8], 4.6 µM in [9] and > 100 µM in [10]. Moreover, the TGI in test [1] was > 100 µM; in test [2], 5.79 µM; in test [3], > 100 µM; in test [4], > 100 µM; in test [5], > 100 µM; in test [6] it was > 100 µM. In addition, the concentration for total growth inhibition (TGI) was > 100 µM in [7], > 100 µM in test [8], 55.6 µM in test [9] and > 100 µM in test [10].
`COc1cc(CSc2nc3ccc(Cl)cc3c(=O)n2Cc2ccccc2)cc(OC)c1OC`: the GI50 in test [1] is 4.23 µM; in [2] it was 3.6 µM; in [3], 1.46 µM; in test [4], 2.9 µM; in [5], 5.34 µM; in test [6], 12.3 µM. Moreover, the GI50 in test [7] was 3.2 µM; in test [8] it was 2.65 µM; in [9] it was 4.36 µM; in test [10], 8.47 µM. The TGI in test [1] is 34.2 µM; in test [2], > 100 µM; in [3], > 100 µM; in test [4] it was > 100 µM; in test [5] it was > 100 µM; in [6], > 100 µM. Also, the concentration for total growth inhibition (TGI) in test [7] was 11.6 µM; in test [8], > 100 µM; in test [9], 35.7 µM; in test [10], > 100 µM.
Consider `CC(=O)O[C@@H]1c2c(c3c(=O)c4cccc(O)c4c(=O)c=3c2=[N+]=[N-])[C@H](OC(C)=O)[C@@H](OC(C)=O)[C@]1(C)O`, for which the GI50 in test [1] is 0.161 µM; in test [3], 0.135 µM; in [4], 0.27 µM; in test [5], 0.335 µM; in [6] it was 0.617 µM; in test [7], 0.407 µM. In addition, the GI50 in test [8] was 0.216 µM; in test [9], 0.532 µM and 0.101 µM; in test [10], 0.295 µM. In addition, the TGI in test [1] is 0.374 µM and 0.3 µM; in test [2], 0.0632 µM; in test [3] it was 0.476 µM and 0.298 µM; in test [4], 0.914 µM and 0.9 µM; in test [5], 1.46 µM and 1.48 µM; in [6], 1.45 µM and 2.18 µM. The TGI is 1.23 µM and 1.4 µM in [7]; 1.22 µM in [8]; 1.14 µM and 0.222 µM in [9]; 1.4 µM and 0.815 µM in test [10].
